From patent US20020016330A1, “Materials and methods for killing nematodes and nematode eggs” (priority 2000, published 2002)

Legend:
Caenorhabditis elegans [1] = assay: C. elegans L1 nematicidal dose response, 5 day visual viability score (3-fold dilutions); assay type: in vivo; design: key: Dead: only stiff L1s (no movement); Dead (L4): worms are dead, but at a later larval stage; majority of worms are L1 (based on size); majority of worms are L2 (based on size); majority of worms are L3 (based on size); majority of worms are L4 (based on size); AD: majority of worms are adult; #AD: 5 adult worms or less; B!: sterile (0-25 progeny); B: low broodsize (25-100 progeny); ˜B: moderate broodsize (100-250 progeny); <: reduced broodsize (250-500 progeny); OK: no effect (˜1000+ progeny); settings: for 5 Day Visual Score V6: 0.3 μM; for 5 Day Visual Score V5: 0.9 μM; for 5 Day Visual Score V4: 2.6 μM; for 5 Day Visual Score V3: 7.8 μM; for 5 Day Visual Score V2: 23.3 μM; for 5 Day Visual Score V1: 70 μM
Protocol: Caenorhabditis elegans adults were grown on Nematode Growth Medium (NGM) until they produced eggs, then the adults were removed.
The eggs were allowed to hatch, and the L1 larvae collected. See The Nematode Caenorhabditis elegans (1988) Cold Spring Harbor Laboratory Press. Using a Matrix Programmable Pipette, the L1s were distributed into 96-well tissue culture plates, 20 L1 in 50 μl NGM per well. Antibiotic/Antimyotic was added to each well, and 1% by weight E. coli strain HB101. The subject anthelmintic compounds were stored at 5 mM in 100% DMSO. 0.7 μl of compounds 1-31 were added to the left-most column of wells to yield a final concentration of 70 μM in 1.4% DMSO, with 1.4% DMSO only as the control. The compounds were then subjected to 5 more 3-fold dilutions from left to right to yield 6 column concentrations of 70 μM, 23.3 μM, 7.8 μM, 2.6 μM, 0.9 μM, and 0.3 μM. Plates were stored in air-tight Rubbermaid plastic boxes at 20° C. The nematodes had cleared all control wells by day 4, and nematode viability was scored by visual examination under a 100× dissecting microscope on day 5. A visual viability scoring system was used as follows:
Column VI has a compound concentration of 70 μM with sequential 3-fold dilutions reported in columns V2, V3, V4, V5, and V6, respectively, such that the V6 concentration was 0.3 μM.
(§1) The nematicidal activity of anthelmintic Compositions 48-68 were determined in accordance with the procedure outlined in Example 2.

Caenorhabditis elegans [2] = assay: Follow-up HTS Run (mOD, % Run, visual score); design: key to Follow-up HTS Run Visual Score: Dead: only stiff L1s (no movement); Dead (L4): worms are dead, but at a later larval stage; majority of worms are L1 (based on size); majority of worms are L2 (based on size); majority of worms are L3 (based on size); majority of worms are L4 (based on size); AD: majority of worms are adult; #AD: 5 adult worms or less; B!: sterile (0-25 progeny); B: low broodsize (25-100 progeny); ˜B: moderate broodsize (100-250 progeny); <: reduced broodsize (250-500 progeny); OK: no effect (˜1000+ progeny); settings: in vivo
Protocol: as §1

Caenorhabditis elegans [3] = assay: Initial HTS Run (mOD, % Run, visual score); design: key to Initial HTS Run Visual Score: Dead: only stiff L1s (no movement); Dead (L4): worms are dead, but at a later larval stage; majority of worms are L1 (based on size); majority of worms are L2 (based on size); majority of worms are L3 (based on size); majority of worms are L4 (based on size); AD: majority of worms are adult; #AD: 5 adult worms or less; B!: sterile (0-25 progeny); B: low broodsize (25-100 progeny); ˜B: moderate broodsize (100-250 progeny); <: reduced broodsize (250-500 progeny); OK: no effect (˜1000+ progeny); settings: in vivo
Protocol: as §1

[4] = tested on: root-knot nematode, Meloidogyne incognita; settings: in vivo; cited from earlier work
[5] = Table 3, procedure of Example 2

SMILES | 5 Day Visual Score V6 (Caenorhabditis elegans [1]; [5]) | 5 Day Visual Score V5 (Caenorhabditis elegans [1]; [5]) | 5 Day Visual Score V4 (Caenorhabditis elegans [1]; [5]) | 5 Day Visual Score V3 (Caenorhabditis elegans [1]; [5]) | 5 Day Visual Score V2 (Caenorhabditis elegans [1]; [5]) | 5 Day Visual Score V1 (Caenorhabditis elegans [1]; [5]) | Follow-up HTS Run % Run (Caenorhabditis elegans [2]) | Follow-up HTS Run Visual Score (Caenorhabditis elegans [2]) | Follow-up HTS Run mOD (Caenorhabditis elegans [2]) | Initial HTS Run % Run (Caenorhabditis elegans [3]) | Initial HTS Run Visual Score (Caenorhabditis elegans [3]) | Initial HTS Run mOD (Caenorhabditis elegans [3]) | activity against the root-knot nematode [4] | 5 Day Visual Score V3 (Caenorhabditis elegans [1]; scored day 5) | 5 Day Visual Score V2 (Caenorhabditis elegans [1]; scored day 5) | 5 Day Visual Score V1 (Caenorhabditis elegans [1]; scored day 5)
Cc1cccc2scc(CC(=O)Nc3nc(C(C)(C)C)cs3)c12 [AKC 170] | OK (no effect (˜1000+ progeny)) | OK (no effect (˜1000+ progeny)) | OK (no effect (˜1000+ progeny)) | OK (no effect (˜1000+ progeny)) | #AD/ | L2 | 139% | L4/AD/B! | 223 mOD | 111% | L3 | 136 mOD | – | – | – | –
CC(C)(C)c1csc(NC(=O)Cc2cn(Cc3cccnc3)c3ccc(Cl)cc23)n1 [AKC 162] | OK (no effect (˜1000+ progeny)) | OK (no effect (˜1000+ progeny)) | OK (no effect (˜1000+ progeny)) | OK (no effect (˜1000+ progeny)) | OK (no effect (˜1000+ progeny)) | < (reduced broodsize (250-500 progeny)) | 111% | B (low broodsize (25-100 progeny)) | 179 mOD | 111% | L2/L3/1AD/B! | 136 mOD | – | – | – | –
CC(C)(C)c1csc(NC(=O)Cc2cn(Cc3ccccc3Cl)c3ccc(Cl)cc23)n1 [AKC 157] | OK (no effect (˜1000+ progeny)) | OK (no effect (˜1000+ progeny)) | < (reduced broodsize (250-500 progeny)) | < (reduced broodsize (250-500 progeny)) | OK (no effect (˜1000+ progeny)) | – | 108% | – | 174 mOD | 98% | – | 120 mOD | – | – | – | –
CC[C@H](C)[C@H]1O[C@]2(CC(O)[C@@H]1C)C[C@@H]1C[C@@H](C/C=C(\C)[C@@H](OC3CC(OC)C(OC4CC(OC)C(O)C(C)O4)C(C)O3)[C@@H](C)/C=C/C=C3\CO[C@@H]4[C@H](O)C(C)=C[C@@H](C(=O)O1)[C@]34O)O2 (stereo partly drawn) [Avermectin B2a] | – | – | – | – | – | – | – | – | – | – | – | – | active | – | – | –
CCCCCCCCS(=O)(=O)N1CCN(C(=O)c2cc(C(F)(F)F)cc(C(F)(F)F)c2)CC1C(=O)NCc1ccccc1 (stereo not drawn) [AKC 165] | OK (no effect (˜1000+ progeny)) | OK (no effect (˜1000+ progeny)) | OK (no effect (˜1000+ progeny)) | < (reduced broodsize (250-500 progeny)) | – | – | 126% | Dead | 203 mOD | 115% | – | 142 mOD | – | – | – | –
COc1ccc(CC(=O)N2CCN(S(=O)(=O)c3ccc(OC)c(OC)c3)C(C(=O)NCc3cc(C(F)(F)F)cc(C(F)(F)F)c3)C2)cc1OC (stereo not drawn) [AKC 168] | OK (no effect (˜1000+ progeny)) | OK (no effect (˜1000+ progeny)) | OK (no effect (˜1000+ progeny)) | OK (no effect (˜1000+ progeny)) | OK (no effect (˜1000+ progeny)) | L3/#AD/B! | 135% | 3AD/˜B | 217 mOD | 90% | 5AD/B | 111 mOD | – | – | – | –
CCCCCCCCS(=O)(=O)N1CCN(C(=O)C=Cc2cccc(C(F)(F)F)c2)CC1C(=O)NCc1ccc(C(F)(F)F)cc1 (stereo not drawn) [AKC 171] | – | – | – | Dead | L2 | Dead | 111% | Dead | 179 mOD | 101% | – | 124 mOD | – | Dead(L4)/#A | L2 | Dead
